Assay results as given in patent publication US5116858A, “4-imidazoline derivatives” (Mitsubishi Kasei Corporation, priority 1989, dated 1992).
pIC50: −log10 of the molar value.

Legend:
[1] = tested on: peroxidized lipid in rat brain homogenate; assay: Lipoperoxidation inhibitory activity in brain homogenate (TBA method); format: biochemical, Wistar male rats; settings: 30 minutes at 37° C., final conc. 0.3-100 μM, read-out: Anti-lipoperoxidation Activity IC50
Procedure: Brain homogenate was prepared using Wistar male rats in accordance with the following procedure. […] A polyethylene tube was inserted into the aorta through the left ventricle, and fixed. Brain perfusion was conducted using ice-cooled 50 mM phosphate buffered saline (PBS), pH 7.4, through the tube, and whole brain was extracted. After removal of the cerebellum, the cerebrum was weighed while wet and homogenated by a Teflon homogenizer under ice-cooling, after addition of nine-fold by weight of PBS. The resultant homogenate was centrifuged at 4° C. (2200 r.p.m., 10 minutes), and an aliquot of the supernatant (0.3 ml) was placed in a light-resistant test tube with ground stopper and used for the following test.
To the brain homogenate obtained above were added PBS (0.6 ml) and an ethanol solution (10 μl) containing a predetermined amount of a test compound. Thus, each of the ethanol solutions was prepared so that the final concentration of the compound was 0.3-100 μM. The mixture was allowed to warm for 30 minutes at 37° C. (external bath temperature). […] (2600 r.p.m., 10 minutes). The resultant supernatant was used in the following quantitative analysis.
The aqueous mixture was heated in a boiling-water bath for 60 minutes and cooled rapidly. Distilled water (1.0 ml) and a mixture of pyridine and butanol (1:15) (5.0 ml) were added to the cooled mixture, and the latter was shaken for 30 seconds and centrifuged (3000 r.p.m., 10 minutes). The supernatant was used as a test sample for quantitative analysis of peroxidized lipid as mentioned below.

mice = assay: Passive avoidance response test (memory-improving activity, cycloheximide-treated mice); format: in vivo; settings: Mus musculus; oral, 15 mice per group, cycloheximide 120 mg/kg s.c., latent time; read-out: Memory-Improving Activity, Minimum Effective Dose
Procedure: Passive avoidance response test was conducted in mice (15 animals per group) using light-dark differential apparatus of step-down type. The apparatus consisted of a dark room made of black and rigid vinylidene chloride resin [30 cm (depth)×30 cm (width)×31 cm (height)] and a light room, as an adjacent room, made of transparent rigid vinylidene chloride resin. The floor of the light room was set 2 cm higher than the grid surface of the dark room (step down type), and there was a guillotine door between the rooms. The animals were placed in the apparatus and acclimatized before test, and latent time for moving from the light room to the dark room was determined.
The acclimatized animals subcutaneously received 120 mg/kg of cycloheximide (Sigma) dissolved in physiological saline. After 30 minutes of the administration, the animals were placed in the light room. Immediatly after the movement of the animals to the dark room, electric current was applied on the grid (0.5 mA, 3 seconds), which gave the animals "aquired behavior". After 24 hours of the establishment of the aquired behavior, a test compound suspended in 1% tragacanth was administered orally to the animals, which were then returned to the light room. Control animals received only 1% tragacanth. The latent time until an individual animal started to move to the dark room was determined.

| SMILES | pIC50 [1] | minimal effective dose (mice) |
| --- | --- | --- |
| CCCCCCCc1ccc(-c2c(C)[nH]c(=O)n2C)cc1 [compound 10] | 5.08 | 30 mg/kg |
| Cc1[nH]c(=O)n(C2CCCCC2)c1-c1ccc(Oc2ccccc2)cc1 [Compound No. 123, 1-Cyclohexyl-4-methyl-5-(4'-phenoxyphenyl)-4-imidazolin-2-one] | 5.10 | 0.1 mg/kg |
| CCCCOc1ccc(-c2c(C)[nH]c(=O)n2C2CCCCC2)cc1 [compound 111] | 4.86 | 0.1 mg/kg |
| CCCCOc1ccc(-c2c(C)[nH]c(=O)n2Cc2ccccc2)cc1 [compound 142] | 4.89 | 0.3 mg/kg |
| Cc1[nH]c(=O)n(C2CCCCC2)c1-c1ccc(-c2ccccc2)cc1 [Compound No. 93, 1-Cyclohexyl-5-(4-biphenyl)-4-methyl-4-imidazolin-2-one] | 4.96 | 0.1 mg/kg |
| CCCCCCCCCCCCOc1ccc(-c2c(C)[nH]c(=O)n2C)cc1 [compound 26] | 5.01 | 0.1 mg/kg |
| Cc1[nH]c(=O)n(C)c1-c1ccc(OCCCc2ccccc2)cc1 [compound 30] | 5.23 | 30 mg/kg |
| Cc1[nH]c(=O)n(C(C)C)c1-c1ccc(C2CCCCC2)cc1 [Compound No. 77, 5-(4'-Cyclohexylphenyl)-1-isopropyl-4-methyl-4-imidazolin-2-one] | 5.08 | 0.1 mg/kg |
| CCCCCCCCCCCCCCCCCCOc1ccc(-c2c(C)[nH]c(=O)n2C)cc1 [compound 27] | – | 0.1 mg/kg |
| CCCCCCCCCCCCCCc1ccc(-c2c(C)[nH]c(=O)n2C)cc1 [compound 14] | 4.36 | 30 mg/kg |
| CCCCCCc1ccc(-c2c(C)[nH]c(=O)n2C)cc1 [Compound No. 1, 1,4-Dimethyl-5-(4'-n-hexylphenyl)-4-imidazolin-2-one] | 5.05 | 0.3 mg/kg |
| CCCCCCCCCCc1ccc(-c2c(C)[nH]c(=O)n2C)cc1 [Compound No. 12] | 5.10 | 0.3 mg/kg |
| CCCCSc1ccc(-c2c(C)[nH]c(=O)n2C)cc1 [compound 32] | 4.95 | 3 mg/kg |
| Cc1[nH]c(=O)n(C2CCCCC2)c1-c1ccc(OC(C)C)cc1 [compound 109] | 4.89 | 0.1 mg/kg |
| CCCCCCCCCCCCc1ccc(-c2c(C)[nH]c(=O)n2C)cc1 [Compound No. 13] | 4.89 | 3 mg/kg |
| Cc1[nH]c(=O)n(Cc2ccccc2)c1-c1ccc(-c2ccccc2)cc1 [compound 141] | 5.10 | 0.1 mg/kg |
| CCCCCCCCOc1ccc(-c2c(C)[nH]c(=O)n2C)cc1 [compound 23] | 5.40 | 30 mg/kg |
| CCCCOc1ccc(-c2c(C)[nH]c(=O)n2C)cc1 [compound 18] | 5.29 | 0.3 mg/kg |
| CCCc1ccc(-c2c(C)[nH]c(=O)n2C2CCCCC2)cc1 [compound 106] | 4.86 | 30 mg/kg |
| CCCCOc1ccc(-c2c(C)[nH]c(=O)n2CC)cc1 [compound 58] | 4.84 | 0.3 mg/kg |
| CCCCCCCCCCOc1ccc(-c2c(C)[nH]c(=O)n2C2CCCCC2)cc1 [Compound No. 122, 1-cyclohexyl-5-(4'-decyloxyphenyl)-4-methyl-4-imidazolin-2-one] | 4.98 | 0.1 mg/kg |
| Cc1[nH]c(=O)n(C2CCCCC2)c1-c1ccc(OCc2ccccc2)cc1 [Compound No. 124, 5-(4'-Benzyloxyphenyl)-1-cyclohexyl-4-methyl-4-imidazolin-2-one] | 5.08 | 0.1 mg/kg |
| CCCCCCCCCCOc1ccc(-c2c(C)[nH]c(=O)n2C)cc1 [compound 25] | 5.16 | 0.1 mg/kg |
| CCCCCCCCc1ccc(-c2c(C)[nH]c(=O)n2C)cc1 [compound 11] | 4.71 | 30 mg/kg |
| CCCCc1ccc(-c2c(C)[nH]c(=O)n2C(C)C)cc1 [compound 78] | 4.97 | 0.3 mg/kg |
